Test results as given in US12404283B2, “c-MYC mRNA translation modulators and uses thereof in the treatment of cancer” (Anima Biotech Inc., priority 2022, dated 2025).

System: c-Myc
Assay: c-Myc immunofluorescence assay
Type: cell-based, human
Details: A549 cells, 24 hours treatment, anti-c-Myc immunofluorescence
In short: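 A549 cells grown 48 h, exposed 24 h to rising compound concentrations, then fixed, permeabilised and stained for c-Myc plus DAPI. Nuclear-segmented c-Myc fluorescence quantified by high-content imaging at 20×; EC50 from logistic dose–response fits.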

Row | Compound | Myc Efficacy (−LogEC50)
1 | CNC(=O)c1ccc(-c2cn3c(n2)sc2cc(C(=O)NC[C@H](O)c4ccccc4)ccc23)cc1 [compound 256, (R)-N-(2-hydroxy-2-phenylethyl)-2-(4-(methylcarbamoyl)phenyl) benzo[d]imidazo[2,1-b]thiazole-7-carboxamide] | − (− ≤3)
2 | CNC(=O)c1ccc(-c2cn3c(n2)sc2cc(C(=O)NCCC4CCCN4C)ccc23)cc1 (stereo not shown) [compound 257, 2-(4-(methylcarbamoyl)phenyl)-N-(2-(1-methylpyrrolidin-2-yl)ethyl)benzo[d]imidazo [2,1-b]thiazole-7-carboxamide] | ++ (++ ≥5 and <6)
3 | CNC(=O)c1ccc(-c2cn3c(n2)sc2cc(C(=O)NC4CC(O)C4(C)C)ccc23)cc1 (stereo not shown) [compound 258, N-(3-hydroxy-2,2-dimethylcyclobutyl)-2-(4-(methylcarbamoyl)phenyl) benzo[d]imidazo[2,1-b]thiazole-7-carboxamide] | + (+ >3 and <5)
4 | CNC(=O)c1ccc(-c2cn3c(n2)sc2cc(C(=O)NCC4CC4(F)F)ccc23)cc1 (stereo not shown) [compound 259, N-((2,2-difluorocyclopropyl)methyl)-2-(4-(methylcarbamoyl)phenyl) benzo[d]imidazo[2,1-b]thiazole-7-carboxamide] | + (+ >3 and <5)
5 | CNC(=O)c1ccc(-c2cn3c(n2)sc2cc(C(=O)NCCC4(O)CCCC4)ccc23)cc1 [compound 260, N-(2-(1-hydroxycyclopentyl)ethyl)-2-(4-(methylcarbamoyl)phenyl) benzo[d]imidazo[2,1-b]thiazole-7-carboxamide] | − (− ≤3)
6 | CNC(=O)c1ccc(-c2cn3c(n2)sc2cc(C(=O)NCC4(C)CC4)ccc23)cc1 [compound 261, 2-(4-(methylcarbamoyl)phenyl) N-((1-methylcyclopropyl)methyl) benzo[d]imidazo[2,1-b]thiazole-7-carboxamide] | − (− ≤3)
7 | CNC(=O)c1ccc(-c2cn3c(n2)sc2cc(C(=O)NCCN4CCCCC4C)ccc23)cc1 (stereo not shown) [compound 262, 2-(4-(methylcarbamoyl)phenyl) N-(2-(2-methylpiperidin-1-yl)ethyl)benzo[d]imidazo [2,1-b]thiazole-7-carboxamide] | + (+ >3 and <5)
8 | CNC(=O)c1ccc(-c2cn3c(n2)sc2cc(C(=O)N[C@H]4c5ccccc5C[C@H]4O)ccc23)cc1 [compound 263, N-((1S,2R)-2-hydroxy-2,3-dihydro-1H-inden-1-yl)-2-(4-(methylcarbamoyl)phenyl) benzo[d]imidazo[2,1-b]thiazole-7-carboxamide] | − (− ≤3)
9 | CCCN1CCC(NC(=O)c2ccc3c(c2)sc2nc(-c4ccc(C(=O)NC)cc4)cn23)CC1 [compound 264, 2-(4-(methylcarbamoyl)phenyl)-N-(1-propylpiperidin-4-yl)benzo[d]imidazo[2,1-b]thiazole-7-carboxamide] | +++ (+++ ≥6)
10 | Cc1cccc(-c2cn3c(n2)sc2cc(NC(=O)N4CCNCC4)ccc23)c1 [compound 265, N-(2-(m-tolyl)benzo[d]imidazo[2,1-b]thiazol-7-yl)piperazine-1-carboxamide] | + (+ >3 and <5)
11 | CCN(CC)CCCC(=O)Nc1ccc2c(c1)sc1nc(-c3cccc(C)c3)cn12 [compound 266, 4-(diethylamino)-N-(2-(m-tolyl)benzo[d]imidazo[2,1-b]thiazol-7-yl)butanamide] | + (+ >3 and <5)
12 | CCN(CC)CCNC(=O)Nc1ccc2c(c1)sc1nc(-c3cccc(C)c3)cn12 [compound 267, 1-(2-(diethylamino)ethyl)-3-(2-(m-tolyl)benzo[d]imidazo[2,1-b]thiazol-7-yl)urea] | + (+ >3 and <5)
13 | CCN(CC)CCCNC(=O)c1ccc2c(c1)sc1nc(-c3ccc(-c4ncc[nH]4)cc3)cn12 [compound 268, 2-(4-(1H-imidazol-2-yl)phenyl)-N-(3-(diethylamino)propyl) benzo[d]imidazo[2,1-b] thiazole-7-carboxamide] | + (+ >3 and <5)
14 | CNC(=O)c1ccc(-c2cn3c(n2)sc2cc(C(=O)NC4CC(N(C)C)C4)ccc23)cc1 (stereo not shown) [compound 269, N-(3-(dimethylamino)cyclobutyl)-2-(4-(methylcarbamoyl)phenyl) benzo[d]imidazo[2,1-b]thiazole-7-carboxamide] | + (+ >3 and <5)
15 | CNC(=O)c1ccc(-c2cn3c(n2)sc2cc(C(=O)NC4CCCC(N)C4)ccc23)cc1 (stereo not shown) [compound 270, N-(3-aminocyclohexyl)-2-(4-(methylcarbamoyl)phenyl) benzo[d]imidazo[2,1-b]thiazole-7-carboxamide] | + (+ >3 and <5)
16 | CNC(=O)c1ccc(-c2cn3c(n2)sc2cc(C(=O)NCCCN4CCCC4CO)ccc23)cc1 (stereo not shown) [compound 271, N-(3-(2-(hydroxymethyl)pyrrolidin-1-yl)propyl)-2-(4-(methylcarbamoyl)phenyl) benzo[d]imidazo[2,1-b]thiazole-7-carboxamide] | + (+ >3 and <5)

Row | Compound | Myc Efficacy (−LogEC50)
17 | CNC(=O)c1ccc(-c2cn3c(n2)sc2cc(C(=O)NCC4CC5(CNC5)C4)ccc23)cc1 [compound 272, N-((2-azaspiro[3.3]heptan-6-yl)methyl)-2-(4-(methylcarbamoyl)phenyl) benzo[d]imidazo[2,1-b]thiazole-7-carboxamide] | − (− ≤3)
18 | CNC(=O)c1ccc(-c2cn3c(n2)sc2cc(C(=O)NC[C@H]4CC[C@H](O)CC4)ccc23)cc1 [compound 273, N-(((1r,4r)-4-hydroxycyclohexyl)methyl)-2-(4-(methylcarbamoyl)phenyl) benzo[d]imidazo[2,1-b]thiazole-7-carboxamide] | − (− ≤3)
19 | CNC(=O)c1ccc(-c2cn3c(n2)sc2cc(C(=O)N[C@H](C)C4CC4)ccc23)cc1 [compound 274, (R)-N-(1-cyclopropylethyl)-2-(4-(methylcarbamoyl)phenyl) benzo[d]imidazo[2,1-b]thiazole-7-carboxamide] | + (+ >3 and <5)
20 | CNC(=O)c1ccc(-c2cn3c(n2)sc2cc(C(=O)NCc4ccccc4)ccc23)cc1 [compound 275, N-benzyl-2-(4-(methylcarbamoyl)phenyl) benzo[d]imidazo[2,1-b]thiazole-7-carboxamide] | − (− ≤3)
21 | CCN(CC)CCCNC(=O)c1ccc2c(c1)sc1nc(-c3ccc(CN(C)C)cc3)cn12 [compound 276, N-(3-(diethylamino)propyl)-2-(4-((dimethylamino)methyl)phenyl)benzo[d]imidazo[2,1-b]thiazole-7-carboxamide] | +++ (+++ ≥6)
22 | CCN(CC)CCCNC(=O)c1ccc2c(c1)sc1nc(-c3ccc(CO)cc3)cn12 [compound 277, N-(3-(diethylamino)propyl)-2-(4-(hydroxymethyl)phenyl) benzo[d]imidazo[2,1-b] thiazole-7-carboxamide] | ++ (++ ≥5 and <6)
23 | CNC(=O)c1ccc(-c2cn3c(n2)sc2cc(C(=O)NCC4(C)CNC4)ccc23)cc1 [compound 278, N-((3-methylazetidin-3-yl)methyl)-2-(4-(methylcarbamoyl)phenyl) benzo[d]imidazo[2,1-b]thiazole-7-carboxamide] | − (− ≤3)
24 | CNC(=O)c1ccc(-c2cn3c(n2)sc2cc(C(=O)NCC4CC5(CC5)CN4)ccc23)cc1 (stereo not shown) [compound 279, N-((5-azaspiro[2.4]heptan-6-yl)methyl)-2-(4-(methylcarbamoyl)phenyl) benzo[d]imidazo[2,1-b]thiazole-7-carboxamide] | − (− ≤3)
25 | CNC(=O)c1ccc(-c2cn3c(n2)sc2cc(C(=O)NC4CC(C)C4)ccc23)cc1 (stereo not shown) [compound 280, 2-(4-(methylcarbamoyl)phenyl)-N-(3-methylcyclobutyl)benzo[d] imidazo[2,1-b]thiazole-7-carboxamide] | ++ (++ ≥5 and <6)
26 | CNC(=O)c1ccc(-c2cn3c(n2)sc2cc(C(=O)NCCCN4CCCCC4)ccc23)c(F)c1 [compound 281, 2-(2-fluoro-4-(methylcarbamoyl)phenyl)-N-(3-(piperidin-1-yl)propyl)benzo[d]imidazo [2,1-b]thiazole-7-carboxamide] | ++ (++ ≥5 and <6)
27 | CCNC(=O)c1ccc(-c2cn3c(n2)sc2cc(C(=O)NCCCN(CC)CC)ccc23)cc1 [compound 282, N-(3-(diethylamino)propyl)-2-(4-(ethylcarbamoyl)phenyl) benzo[d]imidazo[2,1-b]thiazole-7-carboxamide] | + (+ >3 and <5)
28 | CCN(CC)CCCNC(=O)c1ccc2c(c1)sc1nc(-c3ccc(C(=O)NC(C)C)cc3)cn12 [compound 283, N-(3-(diethylamino)propyl)-2-(4-(isopropylcarbamoyl)phenyl) benzo[d]imidazo[2,1-b]thiazole-7-carboxamide] | + (+ >3 and <5)
29 | CCN(CC)CCCNC(=O)c1ccc2c(c1)sc1nc(-c3ccc(C(=O)NCCOC)cc3)cn12 [compound 284, N-(3-(diethylamino)propyl)-2-(4-((2-methoxyethyl)carbamoyl)phenyl)benzo[d]imidazo[2,1-b]thiazole-7-carboxamide] | + (+ >3 and <5)
30 | CCN(CC)CCCNC(=O)c1ccc2c(c1)sc1nc(-c3ccc(C(=O)NCCO)cc3)cn12 [compound 285, N-(3-(diethylamino)propyl)-2-(4-((2-hydroxyethyl)carbamoyl)phenyl)benzo[d]imidazo[2,1-b]thiazole-7-carboxamide] | + (+ >3 and <5)
31 | CCN(CC)CCCNC(=O)c1ccc2c(c1)sc1nc(-c3ccc(C(=O)NC4CCN(C)C4)cc3)cn12 (stereo not shown) [compound 286, N-(3-(diethylamino)propyl)-2-(4-((1-methylpyrrolidin-3-yl)carbamoyl)phenyl)benzo [d]imidazo[2,1-b]thiazole-7-carboxamide] | ++ (++ ≥5 and <6)
